Key:
[1] = tested on: differentiated SH-SY-5Y cells; assay: Externalized phosphatidylserine (meracyanine fluorescence) as index of apoptosis in SH-SY-5Y cells; assay type: cell-based, human
Experimental: Levels of externalized phosphatidylserine (PS) were used as a measure of apoptosis (Rimon et al., 1997, J. Neurosci. Res., 48:563-570). Briefly, cultures were subjected to treatments then rinsed with PBS and incubated with 10 μl/ml merocyanine (Upstate Biotech, Lake Placid, N.Y.), followed by examination under rhodamine optics (Ekinci et al, 1999, J. Biol. Chem., 274:30322-30327).
The question of whether folate deficiency is associated with apoptosis was investigated. […] Overall detachment, a further sign of cell death, was evident by the seventh day in the serum-deprived cultures. The detachment phenomenon precluded longer experiments.
The effect of ALCAR on differentiated SH-SY-5Y cells treated with Abeta was examined. Cells were cultured in 20 μM Abeta in the presence and absence of ALCAR. Some cultures were pretreated with 50 μM ALCAR for 30 minutes. In these experiments, the ALCAR-containing medium was replaced with medium containing Abeta and no ALCAR then incubated for two hours before being assayed. Cultures were assayed for ROS, apoptosis, and ATP.

cortical neurons = assay: Intracellular ROS by DCFD fluorescence in cortical neurons; assay type: cell-based, mice; conditions: folate deprivation for two hours
Experimental: Intracellular reactive oxygen species (ROS) were monitored as described in […] et al., 1999 (J. Biol. Chem., 274:30322-30327). Briefly, cells were incubated for 30 minutes with dichloro-fluorescein diacetate (DCFD; acetoxymethyl ester; Molecular Probes, Inc., Eugene, Oreg.), which is used to detect intracellular peroxide levels. Incubation was followed by rinsing of cultures in serum-free medium and immediate capture of images using UV optics. Images were captured under epifluorescent and phase-contrast illumination using a DAGE CCL-72 cooled CCD camera via a Scion LG-3 frame grabber operated by NIH Image (see the Internet at rsb.info.nih.gov/nih-image). Images were then stored as PICT files on a Macintosh Power PC 7100AV for subsequent analysis. At least 100 cells in randomly-selected fields from duplicate cultures derived from multiple experiments were scored for fluorescent intensity using NIH Image analysis software. Representative background areas devoid of cells were similarly analyzed and subtracted from cell values to yield net densitometric values. All fields for each individual assay were illuminated, captured, and processed under identical settings. Corresponding phase-contrast images were obtained. Cell aggregates were excluded from the assays; only individual cells were quantified. Values were exported to Excel for statistical analyses using Student's t test. […]

SH-SY-5Y cells [2] = assay: HPLC of homocysteine in SH-SY-5Y cell lysates and medium; assay type: cell-based, human
Experimental: (§1) Glutathione levels were quantified in homogenates of SH-SY-5Y cells. Cultures were rinsed twice with Tris-buffered saline (TBS), scraped from the plate in a small volume of TBS and homogenized on ice. Medium was also utilized for analysis of HCY along with cellular lysates, since HCY is normally exported from cells. Homogenates (100 μl) were reduced by mixing with 50 μl of 100 μM N-acetylcysteine or with 30 μl of 30 μM cystamine (as an internal standard) and 10 μl of tri-carboxyethylphosphine (100 mg/ml in 0.05 M HCl). Samples were vortexed, incubated at room temperature for 30 minutes, then centrifuged at 10,000×g for 10 minutes. 80 μl of the resulting supernatant were combined with 160 μl of 2 M boric acid/4 mM EDTA (pH 10.5), followed by 80 μl of 1.0 mg/ml SBDF [7-fluorobenzo-2-oxa-1,3-diazole-4-sulfonate] in boric acid/EDTA buffer). Samples were mixed, incubated for 60 minutes at 60° C., equilibrated to reach temperature, and 50 μl of the sample was then injected into a Hewlett Packard model 1090 HPLC, which is used with a 1046A fluorescence detector and a Hewlett Packard 4.6×60 mm high-speed analytical column packed with 3 μM ODs (C18) Hypersil silica. The mobile phase consisted of methanol/0.2 M acetate buffer pH 4.0 (2/98 by volume). Glutathione concentrations were then determined by comparison of peak area ratios of glutathione to the internal standard N-acetylcysteine in the sample compared to peak areas obtained for a glutathione standard curve. Samples were derived from 3-4 normal and 3-4 ApoE−/− mice for each dietary condition, from ≧2 independent experiments (total n≧6 for each diet for both experiments).
Medium was then decanted, cells were scraped from the plate and homogenized, and medium and cellular lysates, along with an aliquot of fresh medium that had not been in contact with cells, were subjected to HPLC analyses.

SH-SY-5Y cells [3] = assay: HPLC analysis of glutathione and thiols in SH-SY-5Y cells; assay type: cell-based, human
Experimental: as §1
NAC directly scavenges ROS and also provide a source of intracellular cysteine for synthesis of glutathione during conditions of oxidative stress. […] Differentiated SH-SY-5Y cells with and without NAC treatment were subjected to HPLC along with 50 μM each of multiple thiol standards (“Standards”) as indicated in FIGS. 18A to 18C.

[4] = Snowdon et al., 2000; cited from earlier work

In the case of `Nc1nc2ncc(CNc3ccc(C(=O)N[C@@H](CCC(=O)O)C(=O)O)cc3)nc2c(=O)[nH]1` [folate, folic acid], the “meracyanine fluorescence (externalized PS) Mean ± SEM” value ([1]; +folate, Day 1, without serum) is reported as 34.0 ± 1.2 arbitrary fluorescent units, the “meracyanine fluorescence (externalized PS) Mean ± SEM” value ([1]; +folate, Day 3, without serum) is reported as 40.9 ± 2.0 arbitrary fluorescent units and the “meracyanine fluorescence (externalized PS) Mean ± SEM” value ([1]; +folate, Day 5, without serum) is reported as 63.7 ± 3.6 arbitrary fluorescent units. For the same compound, the “meracyanine fluorescence (externalized PS) Mean ± SEM” value ([1]; −folate, Day 1, without serum) was 31.2 ± 1.4 arbitrary fluorescent units, the “meracyanine fluorescence (externalized PS) Mean ± SEM” value ([1]; −folate, Day 3, without serum) was 44.1 ± 4.1 arbitrary fluorescent units and the “meracyanine fluorescence (externalized PS) Mean ± SEM” value ([1]; −folate, Day 5, without serum) was 112.7 ± 5.7 arbitrary fluorescent units. For the same compound, the ROS (cortical neurons) was “increased reactive oxygen species (ROS)”, the “homocysteine levels within cell lysates” value (SH-SY-5Y cells [2]; both before and after folate deprivation) was < 1 nM and the “homocysteine levels in medium” value (SH-SY-5Y cells [2]; cells cultured two hours in the absence of folate) was “approximately 300 nM”. For the same compound, the “homocysteine levels in medium” value (SH-SY-5Y cells [2]; cells cultured two hours in the presence of folate) was “about 30 nM”, the total glutathione levels (SH-SY-5Y cells [3]; brief (two hour) folate deprivation) was “no significant change” and the “depletion of total glutathione levels” value (SH-SY-5Y cells [3]; folate deprivation for 24 hours) was “approximately 45%”. For the same compound, the oxidized glutathione (SH-SY-5Y cells [3]; in the presence of folate) was 4%, the oxidized glutathione (SH-SY-5Y cells [3]; two hours of folate deprivation) was 46% and the “concentration in spinal fluid versus plasma” value [4] was “concentrated four-fold within spinal fluid over that observed within plasma”.

— patent US8173618B2, “Formulations for reducing neuronal degeneration” (University of Massachusetts, priority 2003, dated 2012)
